Measurements from PubChem BioAssay AID2744 (NMMLSC, 2010).
Calls of active or inactive are those of the source.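 The calls were made as follows: active = fitted half-maximal concentration for changing reporter fluorescence at or below a set limit; inactive = the rest.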

Target: Citrate synthase, peroxisomal (Saccharomyces cerevisiae (strain ATCC 204508 / S288c)) (UniProt P08679)
Test: yeast TOR pathway CIT2-GFP reporter potency – flow cytometry, MLPCN hits, dose response (AID 2744)
Settings: S. cerevisiae CIT2-GFP strain, 3 h, at 33 µM (top of the series)

Citrate synthase, peroxisomal (Saccharomyces cerevisiae (strain ATCC 204508 / S288c)), sequence (P08679 whole entry, looked up): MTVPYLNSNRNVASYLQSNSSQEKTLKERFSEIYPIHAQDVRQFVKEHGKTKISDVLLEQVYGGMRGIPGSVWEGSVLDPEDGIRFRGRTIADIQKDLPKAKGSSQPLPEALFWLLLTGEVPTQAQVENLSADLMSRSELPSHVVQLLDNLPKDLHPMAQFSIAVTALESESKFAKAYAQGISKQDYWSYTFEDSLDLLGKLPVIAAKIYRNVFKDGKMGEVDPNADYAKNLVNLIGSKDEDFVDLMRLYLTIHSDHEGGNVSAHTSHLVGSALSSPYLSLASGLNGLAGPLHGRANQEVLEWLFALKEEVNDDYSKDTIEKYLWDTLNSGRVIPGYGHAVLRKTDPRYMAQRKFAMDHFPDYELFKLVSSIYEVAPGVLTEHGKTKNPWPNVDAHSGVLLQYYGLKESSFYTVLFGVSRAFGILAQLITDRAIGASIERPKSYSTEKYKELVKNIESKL

| Structure (SMILES) | GFP fluorescence, higher = induction |
| --- | --- |
| CCC1(c2ccccc2)ON(c2c(Br)cccc2Br)C1=O (centres undefined) | inactive |
| CCOC(=O)c1ccc(N=Cc2nc(-c3ccccc3)oc2OC(C)=O)cc1 | inactive |
| O=C(O)c1ccc2c(c1)C(=O)/C(=C/c1ccccc1)C2=O | inactive |
| COc1cc(NC(=O)c2ccc(C)cc2)ccc1NC(=O)c1cc2ccccc2o1 | inactive |
| CC(C)C[C@]1(c2ccccc2)ON(c2ccccc2C(F)(F)F)C1=O | inactive |
| COc1ccccc1[C@]1(C)ON(c2ccccc2C(F)(F)F)C1=O | inactive |
| CN(O)/C=c1/ccc2c(n1)C(=O)C=CC=2 | inactive |
| CC1(C(=O)NC(=S)NNC(=O)c2ccncc2)CCCCC1 | inactive |
| CCc1sc(C(=O)Nc2nc(-c3ccccn3)cs2)cc1C | inactive |
| CCN(CC)c1ccc2cc(-c3nc(-c4ccc(OC)cc4)cs3)c(=O)oc2c1 | inactive |
| Cc1ccc(C(=O)/C=C/C(=O)c2ccc(C)cc2)cc1 | inactive |
| O=C1c2cccc3c([N+](=O)[O-])ccc(c23)C(=O)N1O | inactive |
| O=C(c1ccc(C(=O)N2CCCc3ccccc32)s1)N1CCCc2ccccc21 | inactive |
| O=C1C(Cl)=C(Nc2ccccc2O)C(=O)N1CCc1ccccc1 | inactive |
| O=C1ON=C(c2ccccc2)/C1=C\c1ccco1 | inactive |
| O=C1C=C(c2ccccc2)C(=O)N1Nc1ccccc1 | inactive |
| O=S(=O)(/N=C(\Sc1ccc(Cl)cc1)c1ccccc1)c1ccccc1 | inactive |
| CCCCC(=O)NC(=S)NNC(=O)CCc1ccccc1 | inactive |
| O=[N+]([O-])c1ccc(-c2cn3nc(-c4ccccc4)c(-c4ccccc4)nc3n2)cc1 | inactive |
| O=C1C(=O)c2ccccc2-c2ccccc21 | inactive |
| CC1(C)OC(c2ccccc2)=C/C(=C/C=C2C(=O)NC(=S)NC2=O)O1 | inactive |
| Cc1ccc(/C=C2\C(=O)NC(=S)N(c3ccc(F)cc3)C2=O)s1 | inactive |
| O=[N+]([O-])c1cc(Cl)cc(/C=N\Nc2ccccn2)c1O | inactive |

| Structure (SMILES) | GFP fluorescence, higher = induction |
| --- | --- |
| O=c1[nH]c(-c2ccc(Cl)cc2)cs1 | inactive |
| Cc1ccc(N2C(=O)CC(Sc3ncn[nH]3)C2=O)cc1C (centres undefined) | inactive |
| O=C(OCC(=O)N1CCN(C(=O)c2ccco2)CC1)c1cc(-c2cccc(Br)c2)nc2ccccc12 | inactive |
| O=C(OCC(=O)N1CCN(C(=O)c2ccco2)CC1)c1cc(-c2ccc(F)cc2)nc2ccccc12 | inactive |
| Cc1ccc(S(=O)(=O)c2ncccc2[N+](=O)[O-])cc1 | inactive |
| Clc1cnc(N/N=C/c2cccs2)c(Cl)c1 | inactive |
| CCOC(=O)CCS(=O)(=O)c1nc(-c2ccccc2)cc(C(F)(F)F)n1 | inactive |
| O=C1C=CC(=O)N1c1ccc(N2CCCCC2)cc1 | inactive |
| COc1cccc2cc(-c3nc4ccccc4o3)c(=O)oc12 | inactive |
| O=C(Oc1oc(-c2ccco2)nc1C=Nc1ccc(Cl)cc1)c1ccco1 | inactive |
| CC(C)(C)C(=O)C(Cl)C(=O)Nc1ccccc1 (centres undefined) | inactive |
| O=[N+]([O-])c1cc(Cl)c2cccnc2c1O | inactive |
| Cc1ccc(C(=O)O/N=C(\N)Cc2cccs2)c(Cl)c1 | inactive |
| Cc1cc(NC(c2ccc(Cl)cc2)c2ccc3cccnc3c2O)no1 (centres undefined) | inactive |
| O=S(=O)(c1ccccc1)c1ccc(C(F)(F)F)cn1 | inactive |
| O=C(OCC(=O)N1CCN(C(=O)c2ccco2)CC1)c1cc(-c2ccc(Cl)c(Cl)c2Cl)nc2ccccc12 | inactive |
| Nc1ccccc1SC(C[N+](=O)[O-])c1ccccc1 (centres undefined) | inactive |
| C#CCOCCOCCOCCNc1nc(N2CCN(C(=O)CCCCCCCCCCNC(=O)[C@H](CCCCN)n3cc(CCO)nn3)CC2)nc(N2CCN(C(=O)CCCCCCCCCCNC(=O)[C@H](CCCCN)n3cc(C[C@@H](C)CC)nn3)CC2)n1 | inactive |
| O=c1cc(CSc2ccc(Cl)cc2)nc(-c2ccccn2)[nH]1 | inactive |
| CCN(CC)C(=O)Oc1ccnc2cc(Cl)ccc12 | inactive |
| C/C(=N\Nc1ncnc2sc(C)c(C)c12)c1ccccn1 | inactive |
| Cc1cc(C)c(S(=O)(=O)N2CCC(C(=O)NCc3ccc(Cl)cc3Cl)CC2)c(C)c1 | inactive |
| O=C(OCn1ncc(Br)c(Br)c1=O)c1ccccc1Cl | inactive |

| Structure (SMILES) | GFP fluorescence, higher = induction |
| --- | --- |
| Cc1ccsc1/C=C1\C(=O)NC(=S)N(C)C1=O | inactive |
| O=C(Nc1nnc(-c2ccc(F)cc2)o1)c1cccc([N+](=O)[O-])c1 | inactive |
| O=C(/C=C/c1ccccc1)NC(=S)NNC(=O)Cc1cccs1 | inactive |
| CC(C)Cn1c(=O)c(C(=O)Nc2ccncc2)c(O)c2ccccc21 | inactive |
| O=C(Oc1oc(-c2ccco2)nc1C=Nc1ccccc1)c1ccco1 | inactive |
| O=C1NC(=O)C(=Cc2ccc(-c3ccc(Cl)cc3)o2)C(=O)N1 | inactive |
| COc1ccc(Cl)cc1C(Nc1cccnc1)c1ccc2cccnc2c1O (centres undefined) | inactive |
| O=C(Nc1ccc(NC(=O)c2cc3ccccc3o2)cc1)c1ccc2c(c1)OCCO2 | inactive |
| O=[N+]([O-])c1c(Nc2ccccn2)cc(Cl)c2nonc12 | inactive |
| CCOC(=O)/C(=C\c1cn(C)c2ccccc12)[N+](=O)[O-] | inactive |
| Cc1ccc(C(=O)O)cc1N=Cc1cc(Br)cc(Br)c1O | inactive |
| Nc1ccccc1C#CC(=O)c1ccccc1 | inactive |
| Cn1ncc2c(O/N=C(\N)c3ccc(C(C)(C)C)cc3)ncnc21 | inactive |
| Oc1cc(-c2ccc(N3CCCCC3)nc2)cc2cccnc12 | inactive |
| COc1ccc(-c2cc3cc(C(=O)O)ccn3c2C(=O)c2ccccc2)cc1 | inactive |
| O=C(COc1ccc(F)cc1Cl)Nc1nc(-c2ccccn2)cs1 | inactive |
| Cc1cc(O)c(C(=O)/C=C/c2ccc(Cl)cc2)c(=O)o1 | inactive |
| Nc1ccc2ccc3cccc[n+]3c2c1 | inactive |
| O=[N+]([O-])c1cnc(Sc2ccncn2)s1 | inactive |
| O=C(/C=C/c1ccccc1[N+](=O)[O-])c1ccccc1Br | inactive |
| CCC(=O)Nc1ccc(NC(=O)c2cc3ccccc3o2)c(OC)c1 | inactive |

Same assay, conditions: S. cerevisiae CIT2-GFP strain, flow cytometry fluorescence, 3 h

| Structure (SMILES) | EC50 [nM] |
| --- | --- |
| CCCCC(=O)NNC(=S)NC(=O)c1ccc(C)cc1 | 3390 |
| O=C(Nc1ccc(Cl)cc1)ON=C1CCCC1 | 1230 |
